Experimental findings from PMC9266822, “Thermal Shift Assay for Small GTPase Stability Screening: Evaluation and Suitability” (International Journal of Molecular Sciences, 2022) are described below.

“Also recorded” adds a separate entry of the source.

For test [1], the target named is T1, KRAS G12C (Homo sapiens, UniProt P01116, G12C).
T1 construct: GG-Hs.KRAS4b (2-188) G12C; His6-MBP (N, cleaved yes); made in house; host or cells: E. coli
In words: Competitive Protein-Probe thermal stability assay with DARPin K13. Format: binding. The note with it: 50 nM KRAS G12C, 50 nM K13; 2 µM inhibitor.

In test [2] the test system is T2, KRAS WT.
T2 construct: His6-MBP (N, cleaved yes); made in house; host or cells: E. coli
In words: SYPRO Orange thermal ramping assay. Format: binding, human. The note with it: 10 µM KRAS WT, 20 µM compound. The method, then: (§1) SYPRO Orange and ANS assays were performed using a one-step protocol, where the samples (8 µL) and SYPRO Orange/ANS solution (12 µL) were combined prior to the first heating step. The samples were incubated for 3 min at each temperature, followed by fluorescence signal measurement. SYPRO Orange was used at 5× (stock 5000×) and ANS at 10 µM final concentration.

Test [3] has as its system T3, KRAS G12C.
T3 construct: GG-Hs.KRAS4b (2-188) G12C; His6-MBP (N, cleaved yes); made in house; host or cells: E. coli
In words: Protein-Probe thermal stability assay. The conditions noted are these: for concentration of saturated stabilization / ΔTm: 50 nM KRAS G12C; for ΔTm: 5 µM inhibitor, saturated. It is filed as binding, human. The method, then: All Protein-Probe assays were performed using a sample volume of 8 µL and a two-step assay protocol. […] Assays were performed in a sample buffer containing 10 mM HEPES (pH 7.5), 0.001% Triton X-100 and 20 mM NaCl and the buffer was supplemented with 0–10 mM MgCl2, 0–1 mM CaCl2, or 0–1 mM EDTA, depending on the assay. In all thermal stability assays, samples were preincubated at RT for 10 min (nucleotides) or 30 min (inhibitors) prior to thermal measurements. […] At each temperature, samples were incubated for 3 min before the Protein-Probe solution was added, and the TRL-signals at 620 nm were monitored at RT. […]
(§2) All inhibitor assays were performed with a buffer containing 1 mM MgCl2. […]

The test system of test [4] is T3, KRAS G12C. Put plainly: SYPRO Orange / ANS thermal ramping assay. The note with it: 10 µM KRAS G12C, 20 µM inhibitor, double transitions. Format: binding, human. The procedure: as §1
A further test relates to KRAS G12D. Put plainly: Protein-Probe thermal stability assay. The conditions noted are these: Table S1; KRAS G12D 50 nM; MgCl2 1 mM, GDP 10 mM as headed. Format: binding, human. The method, then:
(§3) All Protein-Probe assays were performed using a sample volume of 8 µL and a two-step assay protocol. Detection was performed at room temperature (RT) by adding 65 µL Protein-Probe solution: 4 µM HIDC (1,1,3,3,3′,3′-hexamethylindodicarbocyanine iodide) and 1–1.5 nM Eu^3+-labeled peptide probe (NH2-[…]). Assays were performed in a sample buffer containing 10 mM HEPES (pH 7.5), 0.001% Triton X-100 and 20 mM NaCl and the buffer was supplemented with 0–10 mM MgCl2, 0–1 mM CaCl2, or 0–1 mM EDTA, depending on the assay. In all thermal stability assays, samples were preincubated at RT for 10 min (nucleotides) or 30 min (inhibitors) prior to thermal measurements. Depending on the studied protein, thermal ramping was performed up to 95 °C, using 5 °C intervals. At each temperature, samples were incubated for 3 min before the Protein-Probe solution was added, and the TRL-signals at 620 nm were monitored at RT.
(§4) In addition, KRAS WT was monitored in a sample buffer supplemented with 0–10 mM MgCl2 or 0–1 mM CaCl2.
(§5) KRAS G13D (50 nM) was monitored in the presence of 0–900 nM GDP, and KRAS WT, G13D, G12D, and Q61R (50 nM) were monitored with 10 and/or 100 µM GDP, GTP, and ATP in buffer supplemented with 1 mM MgCl2. KRAS WT (50 nM) was also monitored with 10 µM GDP in a buffer without MgCl2 or supplemented with 0–1 mM CaCl2 or 1 mM EDTA. HRAS (2 µM), NRAS (2 µM), RhoA (2 µM), and Gαi (50 nM) were monitored with 100 µM GDP, GTP, or ATP in buffers with or without 1 mM MgCl2 and 1 mM EDTA. In addition, melting curves for KRAS WT (50 nM) were measured with GTP analogs GTPγS, GMPPNP, and GMPPCP (0–300 µM), and GMP (0–1000 µM) in the presence of 1 mM MgCl2.
All inhibitor assays were performed with a buffer containing 1 mM MgCl2.
(§6) Assays were performed using three DARPins alone or in combination with small molecular inhibitors. […] The thermal curves were monitored after an additional 30 min incubation at RT.

The next test has as its system T4, KRAS Q61R.
T4 construct: GG-Hs.KRAS4b (2-188) Q61R; His6-MBP (N, cleaved yes); made in house; host or cells: E. coli
In words: Protein-Probe thermal stability assay. It is filed as binding, human. The note with it: KRAS Q61R 50 nM. The procedure:
as §3, §4, §5, §6

Test [5] deals with T5, KRAS G13D.
T5 construct: GG-Hs.KRAS4b (2-188) G13D; His6-MBP (N, cleaved yes); made in house; host or cells: E. coli
Put plainly: Protein-Probe thermal stability assay. Format: binding, human. The note with it: KRAS G13D 50 nM. The method, then: as §3, §4, §5, §6

In test [6] the test system is T2, KRAS WT. Put plainly: Protein-Probe thermal stability assay. It is filed as binding, human. The method, then: as §3, §4
[…] KRAS WT (50 nM) was also monitored with 10 µM GDP in a buffer without MgCl2 or supplemented with 0–1 mM CaCl2 or 1 mM EDTA. HRAS (2 µM), NRAS (2 µM), RhoA (2 µM), and Gαi (50 nM) were monitored with 100 µM GDP, GTP, or ATP in buffers with or without 1 mM MgCl2 and 1 mM EDTA. In addition, melting curves for KRAS WT (50 nM) were measured with GTP analogs GTPγS, GMPPNP, and GMPPCP (0–300 µM), and GMP (0–1000 µM) in the presence of 1 mM MgCl2.
as §2

Test [7] has as its system T5, KRAS G13D. Put plainly: SYPRO Orange thermal ramping assay. The conditions noted are these: KRAS G13D 3 µM, 1 mM MgCl2, GDP 1 µM, ATP 1 mM. Format: binding, human. The procedure:
as §1
Thermal stability curves for KRAS WT, G12C, G13D, and Q61R (0–30 µM) were monitored both with SYPRO Orange and ANS in an assay buffer with or without 1 mM MgCl2. In addition, HRAS, NRAS, KRAS V14I, RhoA, and Gαi were studied at 10 µM concentration. KRAS G13D (3 µM) was assayed with SYPRO Orange in thermal ramping in combination with 0–1000 µM GDP, 1000 µM GTP, and 1000 µM ATP in a buffer supplemented with 1 mM MgCl2. Additionally, 10 µM HRAS, NRAS, KRAS V14I, Ac-KRAS iMet-KRAS, RhoA, and Gαi were studied without additional nucleotides or with 10 or 100 µM GDP/GTP in an assay buffer supplemented with 1 mM MgCl2 or 1 mM EDTA.

Test [8] deals with T6, KRAS WT (Homo sapiens, UniProt P01116).
T6 construct: GG-Hs.KRAS4b (2-188), GG-Hs.KRAS4b (2-188) G12C; His6-MBP (N, cleaved yes); made in house; host or cells: E. coli
In words: QRET nucleotide exchange assay, SOScat induced. It is filed as biochemical. The note with it: 15 nM KRAS.

For the next test, the system named is T7, RhoA.
T7 construct: and RhoA (1-182) were gen-; His6-MBP (N, cleaved yes); made in house; host or cells: E. coli
In words: Protein-Probe thermal stability assay. Format: binding. The note with it: Table S1; RhoA 1 µM; additive concentrations not given (100 µM GDP/GTP). The method, then: as §3, §4
KRAS G13D (50 nM) was monitored in the presence of 0–900 nM GDP, and KRAS WT, G13D, G12D, and Q61R (50 nM) were monitored with 10 and/or 100 µM GDP, GTP, and ATP in buffer supplemented with 1 mM MgCl2. KRAS WT (50 nM) was also monitored with 10 µM GDP in a buffer without MgCl2 or supplemented with 0–1 mM CaCl2 or 1 mM EDTA. […] In addition, melting curves for KRAS WT (50 nM) were measured with GTP analogs GTPγS, GMPPNP, and GMPPCP (0–300 µM), and GMP (0–1000 µM) in the presence of 1 mM MgCl2.

In a further test the test system is Gαi. Put plainly: Protein-Probe thermal stability assay. Format: binding. The conditions noted are these: 100 µM GDP or GTP. The method, then:
as §3, §4, §5

Test [9] relates to T3, KRAS G12C. Put plainly: Protein-Probe thermal stability assay. It is filed as binding, human. The conditions noted are these: KRAS G12C 50 nM; 1 µM ARS-1620; 0 mM MgCl2.
The mark [10] stands for this setting: Table S1, EDTA 0.5 mM, MgCl2 1 mM, GDP 10 mM, GTP 10 µM as headed.

In the case of `C=CC(=O)N1CC(N2CCN(C(=O)CNc3cc(C4(C)CC4)c(Cl)cc3O)CC2)C1` [ARS-853], the “thermal stability increase in the presence of K13” value at KRAS G12C [1] was “no thermal stability increase”. Moreover, in the test with KRAS WT [2], the “effect on thermal stability” value is on record as “Neither compound altered”. Besides, in the test with KRAS G12C [3], the “concentration of saturated stabilization” value is reported as 5 µM and the shift in melting temperature (ΔTm) was 16 °C. The same molecule came in with a maximal thermal stabilization in the test with KRAS G12C [4] of around 13 °C.
In the case of `Nc1nc2c(ncn2[C@@H]2O[C@H](COP(=O)(O)OP(=O)(O)O)[C@@H](O)[C@H]2O)c(=O)[nH]1` [GDP, guanosine-5’-diphosphate], the “Thermal Stability (°C)” value in the test on KRAS G12D amounted to 67.6 ± 0.4 °C; in the test on KRAS Q61R (setting [10]) it was 71.3 ± 0.9 °C; in the test with KRAS G13D [5] (setting [10]), 60.5 ± 0.2 °C; in the test with KRAS WT [6] (Table S1, KRAS WT 50 nM, additive as headed: EDTA 0.5 mM, MgCl2 1 mM, GDP 10 mM, GTP 10 µM, GTPγS 10 µM, GMP-PNP 300 µM, GMP-PCP 300 µM, GMP 1 mM) it was 68.0 ± 0.5 °C; with RhoA, 70.1 ± 1.1 °C. For the same molecule, the “stabilization by GDP” value with KRAS Q61R (10 µM GDP) was “not stabilized; also recorded: no change in Tm”. For the same molecule, in the test on KRAS G13D [5] (10 µM GDP), the “shift of Tm” value was “over 10 °C”. Further, the “GDP concentration at which stabilization saturates” value in the test on KRAS G13D [5] (GDP titration 0–0.9 mM) was “approximately 300 µM”. For the same molecule, the “Tm of nucleotide-preloaded KRAS” value in the test on KRAS WT [6] (KRAS 50 nM preloaded with the nucleotide, unit not given, in °C (unit assumed)) is recorded as 60.4 ± 0.2. In the test on KRAS WT [6] (KRAS WT 50 nM, 1 mM MgCl2), the “concentration at which KRAS was stabilized” value is 10000 nM. In addition, the ΔTm came to 7.6 °C in the test on KRAS WT [6] (KRAS WT 50 nM, 10 µM GDP in 1 mM MgCl2) and 11.3 °C in the test on KRAS WT [6] (KRAS WT 50 nM, 10 µM GDP in the presence of 1 mM EDTA). Besides, the Tm is reported as 61.2 ± 0.9 with KRAS WT [6] (KRAS WT 50 nM, 10 µM GDP with 0.1 mM Ca2+, unit not given, in °C (unit assumed)) and 61.8 ± 0.6 in the test on KRAS WT [6] (KRAS WT 50 nM, 10 µM GDP with 1 mM Ca2+, unit not given, in °C (unit assumed)). For the same molecule, in the test on KRAS G13D [7], the “stabilization” value is on record as “no KRAS G13D stabilization”. On KRAS WT [8] (Fig. 3A legend, SOScat 10 nM), this molecule gave a KRAS binding below 15 nM. Moreover, the EC50 on KRAS WT [8] (nucleotide titration, SOScat 5 nM (Table S2), 10 nM (Fig. 3 legend)) turned out to be 11.9 ± 0.7 nM. In addition, the figures for the “max ΔTm” value in the test on Gαi (with Mg2+) and with Gαi (without Mg2+) were at most 1.0 °C and at most 3.3 °C, respectively.
Consider `C=CC(=O)N1CCN(c2ncnc3c(F)c(-c4c(O)cccc4F)c(Cl)cc23)CC1` [ARS-1620], for which, on KRAS G12C [1], the “thermal stability increase in the presence of K13” value is reported as “no thermal stability increase”. The “effect on thermal stability” value in the test on KRAS WT [2] is on record as “Neither compound altered”. In addition, in the test with KRAS G12C [3], the “concentration of saturated stabilization” value is listed as 5 µM and the ΔTm was 18 °C. In addition, the “thermal stabilization” value with KRAS G12C [3] (KRAS G12C 50 nM, 1 µM ARS-1620, 1 mM MgCl2) is “thermally stabilizes”. For the same molecule, in the test on KRAS G12C [4], the maximal thermal stabilization was around 13 °C. In addition, the “thermal stabilization” value with KRAS G12C [9] was “diminished the thermal stability effect; also recorded: required Mg^2+ to stabilize”.
